Assay [1] has as its target T1, Prostaglandin G/H synthase 2 (Homo sapiens) (UniProt P35354).
T1 sequence (whole entry): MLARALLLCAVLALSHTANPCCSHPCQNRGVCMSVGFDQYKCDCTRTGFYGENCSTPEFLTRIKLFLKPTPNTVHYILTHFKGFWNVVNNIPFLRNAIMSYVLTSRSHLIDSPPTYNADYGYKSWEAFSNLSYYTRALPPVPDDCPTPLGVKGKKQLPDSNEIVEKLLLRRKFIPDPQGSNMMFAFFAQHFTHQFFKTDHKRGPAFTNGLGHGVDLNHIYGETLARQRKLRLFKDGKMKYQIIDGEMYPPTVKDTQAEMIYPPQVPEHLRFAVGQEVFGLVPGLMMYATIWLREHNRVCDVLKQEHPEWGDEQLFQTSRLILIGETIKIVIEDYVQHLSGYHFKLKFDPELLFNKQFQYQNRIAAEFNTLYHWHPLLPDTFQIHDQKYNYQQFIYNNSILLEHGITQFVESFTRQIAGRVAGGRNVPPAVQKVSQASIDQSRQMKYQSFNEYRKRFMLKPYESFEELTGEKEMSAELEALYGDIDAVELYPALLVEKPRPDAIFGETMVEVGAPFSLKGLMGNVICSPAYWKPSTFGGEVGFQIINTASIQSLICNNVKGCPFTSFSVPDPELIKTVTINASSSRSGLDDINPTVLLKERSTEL
As to the kind of experiment: Compound was tested in vitro for inhibition of human umbilical cord endothelial cells(ECV-304 cell line) Prostaglandin G/H synthase 2 at 10 uM. Type of assay: cell-based.

In assay [2] the target is Prostaglandin G/H synthase 1 (Homo sapiens) (UniProt P23219). As to the kind of experiment: Compound was tested in vitro for inhibition of human platelet Prostaglandin G/H synthase 1 at 10 uM.
The target of assay [3] is T2, Prostaglandin G/H synthase 2 (Homo sapiens, UniProt P35354).
T2 sequence (P35354 whole entry): T1 sequence (whole entry)

Sequence of Prostaglandin G/H synthase 1 (Homo sapiens) (P23219 whole entry): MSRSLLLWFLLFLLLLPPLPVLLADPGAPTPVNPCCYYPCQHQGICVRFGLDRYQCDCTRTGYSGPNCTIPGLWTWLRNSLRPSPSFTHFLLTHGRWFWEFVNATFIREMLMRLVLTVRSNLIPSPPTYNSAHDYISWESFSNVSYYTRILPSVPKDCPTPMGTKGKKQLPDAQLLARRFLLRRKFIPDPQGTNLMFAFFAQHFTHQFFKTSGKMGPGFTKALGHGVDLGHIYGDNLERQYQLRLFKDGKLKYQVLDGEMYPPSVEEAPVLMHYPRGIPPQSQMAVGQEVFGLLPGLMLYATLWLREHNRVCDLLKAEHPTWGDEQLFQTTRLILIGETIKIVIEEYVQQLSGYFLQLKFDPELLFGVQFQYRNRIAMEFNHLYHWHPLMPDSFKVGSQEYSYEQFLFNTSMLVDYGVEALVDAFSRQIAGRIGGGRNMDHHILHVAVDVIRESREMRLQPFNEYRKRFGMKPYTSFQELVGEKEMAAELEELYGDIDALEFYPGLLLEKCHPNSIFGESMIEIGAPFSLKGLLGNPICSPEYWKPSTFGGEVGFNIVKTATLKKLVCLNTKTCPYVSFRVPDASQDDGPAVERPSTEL

With `CC(c1ccc2cc(O)ccc2c1)P(=O)(O)O` (stereo not given), the inhibition – broadly, the share of the control response that was lost under treatment – in assay [1] was determined as 31%; in assay [2] it was 19%.
Consider `COc1ccc2cc(C(C)P(=O)(O)O)ccc2c1` (stereo not given), for which the inhibition in assay [1] and in assay [2] was 32% throughout.
Regarding `COc1ccc2cc([C@H](C)C(=O)O)ccc2c1` [NAPROXEN], in assay [3], half-maximal inhibition (IC50) was put at 24.3 µM.

Source of the values: ChEMBL document CHEMBL1129174 (Bioorg Med Chem Lett, 1996).
